Patent US4769235A, “Immunodominant epitope of the circumsporozoite surface protein” (New York University, priority 1984, dated 1988)
“Also recorded” adds a separate entry of the source. No end group written: not given here.

Key:
monoclonal antibody 6B8 = assay: Binding of 125I-labelled tetraeicosapeptide to Sepharose beads bearing monoclonal antibody 6B8; set-up: species or system mouse; details: other experiments, not shown
Source text: (§1) Monoclonal antibodies against surface antigens of sporozoites of the simian malaria parasite Plasmodium knowlesi were produced by fusion of plasmacytoma cells with spleen cells of a mouse immunized witn the parasite as previously described by Cochrane et al., supra., (1982) and described in detail in the Malaria Vaccine patent application. The monoclonal antibodies (four idiotypes: 2G3, 8B8, 5H8 and 8E11 were partially purified from ascites of mice bearing hybridomas by 50% ammonium sulphate precipitation followed by molecular sieve chromatography on Sephadex G-200.
(§2) To determine whether the 24-peptide is recognized by all monoclonal antibodies, 5 mg of purified monoclonal antibodies were bound to 1 ml of CNBr activated Sepharose 4B (Pharmacia Fine Chemicals, Piscataway, N.J., U.S.A.) according to instructions of the manufacturer. The 24 amino acid peptide was radiolabelled with ^125 I with the Boulton-Hunter reagent, to a specific activity of approximately 10^4 cpm/μg. Twenty μl of beads bearing the different antibodies were incubated for 60 minutes at room temperature in the presence of 100 μl of PBS-BSA containing either 1 μg of the radiolabelled peptide alone or radiolabelled peptide in the presence of […] of cold tetraeicosapeptide. The beads were then washed by centrifugation with PBS-BSA and counted in a gamma-counter.

[1] = test system: monoclonal antibody (3D11) against the surface protein of P. berghei; assay: Binding of 125I-labelled tetraeicosapeptide to control beads bearing monoclonal antibody 3D11
Description: as §2

[2] = test system: monoclonal antibody 5H8 against the surface protein of P. knowlesi; assay: Binding of 125I-labelled tetraeicosapeptide to Sepharose beads bearing monoclonal antibody 5H8; set-up: species or system mouse
Source text: as §1, §2

[3] = test system: binding of monoclonal antibody 2G3 to the CS protein P. knowlesi; assay: Inhibition radioimmunoassay: binding of 125I-labelled monoclonal antibody 2G3 to P. knowlesi CS protein; details: for Inhibitory activity on binding of monoclonal antibody 2G3 to CS protein (in words): FIGS. 1, 2 / Table 3
Description: (§3) The immunoactivity of the synthetic peptides was evaluated by measuring their ability to inhibit the reaction between the monoclonal anti-CS and the antigen (CS protein). Antigen was purified from sporozoites, as disclosed in the Malaria Vaccine patent application and as also described by Vanderberg, supra, and Zavala, F., et al, supra, 1982, is preferably employed using ^125 I-labeled antibody.
(§4) Competitive inhibition of the antigen-antibody reaction by the thus synthesized peptides was measured by the following radioimmunoassay. P. knowlesi sporozoite CS protein was used as the antigen.
(§5) (a) Preparation of antigen: 3,000 purified P. knowlesi sporozoites (Vanderberg et al., Military Medicine 134:1183, 1969) in 50 μl of phosphate buffered saline (PBS) containing protease inhibitors, were delivered to the bottom of polystyrene (Falcon 3911 plate, B-D and Co., Oxnard, Calif.) microtiter plates, which were sealed with parafilm and frozen at -70° C. for at least ten minutes. The plates were then allowed to defrost slowly at room temperature. This procedure was repeated six times. Then the plates were incubated at 4° C. overnight, and at 56° C. for five minutes. The P. knowlesi extract was then removed from the wells and these were washed three times with PBS containing 1% bovine serum albumin (BSA) and 0.1% NaN3. The wells were then filled with PBS-BSA-NaN3 for a few hours at room temperature.
(§6) All synthetic peptides were dissolved in PBS at a concentration of 10 mM and subsequently diluted serially in PBS-1% BSA/0.1% NaN3. Twenty-five μl of serial dilutions of each peptide were added to the wells coated with antigen. Control wells received only the diluent. Then, 25 μl of the ^125 I-labelled monoclonal antibody (about 5-10ng, 10 ^5 cpm) were added to the wells. The microtiter plates were incubated at 4° C. for 18 hours, washed 5 times with PBS-BSA-NaN3 and then the wells were counted for well-bound antibody. (LKB 1260 Muilti-gamma γ-counter LKB Instruments, Inc., Gaithersburg, Md.). […]

[4] = test system: binding of monoclonal antibody 2G3 to the CS protein P. knowlesi; details: cited from earlier work
[5] = test system: monoclonal antibody 2G3 against the surface protein of P. knowlesi; assay: Binding of 125I-labelled tetraeicosapeptide to Sepharose beads bearing monoclonal antibody 2G3; set-up: species or system mouse
Source text: as §1, §2

[6] = test system: monoclonal antibody 8B8 against the surface protein of P. knowlesi; assay: Binding of 125I-labelled tetraeicosapeptide to Sepharose beads bearing monoclonal antibody 8B8; set-up: species or system mouse
Source text: as §1, §2

monoclonal antibody 8E11 = assay: Binding of 125I-labelled tetraeicosapeptide to Sepharose beads bearing monoclonal antibody 8E11; set-up: species or system mouse; details: other experiments, not shown
Source text: as §1, §2

[7] = test system: binding of monoclonal antibody 5H8 to the CS protein P. knowlesi; assay: Inhibition radioimmunoassay: binding of 125I-labelled monoclonal antibody 5H8 to P. knowlesi CS protein; details: summary of FIGS. 1, 3 / Table 3
Description: as §3, §4
(§7) (a) Preparation of antigen: 3,000 purified P. knowlesi sporozoites (Vanderberg et al., Military Medicine 134:1183, 1969) in 50 μl of phosphate buffered saline (PBS) containing protease inhibitors, were delivered to the bottom of polystyrene (Falcon 3911 plate, B-D and Co., Oxnard, Calif.) microtiter plates, which were sealed with parafilm and frozen at -70° C. for at least ten minutes. The plates were then allowed to defrost slowly at room temperature. This procedure was repeated six times. […]
(§8) All synthetic peptides were dissolved in PBS at a concentration of 10 mM and subsequently diluted serially in PBS-1% BSA/0.1% NaN3. […] The microtiter plates were incubated at 4° C. for 18 hours, washed 5 times with PBS-BSA-NaN3 and then the wells were counted for well-bound antibody. […]

[8] = test system: monoclonal antibody 8A8 against the surface protein of P. knowlesi; assay: Binding of 125I-labelled tetraeicosapeptide to Sepharose beads bearing monoclonal antibody 8A8; set-up: species or system mouse
[9] = test system: binding of radiolabelled 8E11 to the CS protein of P. knowlesi; assay: Inhibition radioimmunoassay: binding of radiolabelled monoclonal antibody 8E11 to P. knowlesi CS protein
Description: as §3, §4, §5, §6

[10] = test system: monoclonal anti-CS / CS protein of P. knowlesi; assay: Reactivity of synthetic peptides with monoclonal anti-CS (antibody not specified); assay type: binding; details: antibody not given; compared with (1-12) or (5-12) where stated
Description: Four monoclonal antibodies (2G3, 5H8, 8B8, and 8E11) were used in immunoactivity testing of synthesized shorter length analogs of the 12-peptide. The purpose was further localization and identification of the epitope contained therein.
After synthesis, cleavage and purification, the peptides were tested for reactivity with monoclonal anti-CS, preferably partially purified. The anti-CS used in these tests were produced by ascites tumor induction using hybridoma cells resulting from the fusion of plasmacytoma cells with spleen cells of a mouse immunized with the parasite, as described by Cochrane, A. H. et al, supra, and as disclosed in the Malaria Vaccine patent application.
The immunoactivity of the synthetic peptides was evaluated by measuring their ability to inhibit the reaction between the monoclonal anti-CS and the antigen (CS protein). […]
Competitive inhibition of the antigen-antibody reaction by the thus synthesized peptides was measured by the following radioimmunoassay. […]
as §8

[11] = test system: binding of monoclonal antibody 8B8 to the CS protein P. knowlesi; assay: Inhibition radioimmunoassay: binding of 125I-labelled monoclonal antibody 8B8 to P. knowlesi CS protein; details: text summary of FIG. 4 / Table 3
Description: as §3, §4, §7, §8

[12] = control 3D11 beads suspended in PBS-BSA
[13] = 5H8 beads in PBS-BSA + excess of cold tetraeicosapeptide
[14] = 2G3 beads in PBS-BSA + excess of cold tetraeicosapeptide
[15] = 8B8 beads in PBS-BSA + excess of cold tetraeicosapeptide
[16] = 8A8 beads in PBS-BSA + excess of cold tetraeicosapeptide

H-QAQGDGANAGQPQAQGDGANAGQP-NH2 [Peptide 1-24]
Binding of radiolabelled (1-24) to beads bearing 6B8 (in words) (monoclonal antibody 6B8): Analogous results
cpm of radiolabelled tetraeicosa peptide that bound to the beads ([1]; control 3D11 beads in PBS-BSA + excess of cold tetraeicosapeptide): 0 cpm
% of input of radiolabelled tetraeicosa peptide that bound to the beads [1, 12]: 0.2 % of input
cpm of radiolabelled tetraeicosa peptide that bound to the beads [1, 12]: 25 cpm
% of input of radiolabelled tetraeicosa peptide that bound to the beads [2, 13]: 0.2 % of input
cpm of radiolabelled tetraeicosa peptide that bound to the beads [2, 13]: 20 cpm
% of input of radiolabelled tetraeicosa peptide that bound to the beads ([2]; 5H8 beads suspended in PBS-BSA): 19.7 % of input
cpm of radiolabelled tetraeicosa peptide that bound to the beads ([2]; 5H8 beads suspended in PBS-BSA): 2332 cpm
Inhibitory activity on binding of monoclonal antibody 2G3 to CS protein (in words) [3]: almost identical
Reactivity with monoclonal anti-CS 2G3 (previous work) [4]: interacted simultaneously with two molecules of 2G3
% of input of radiolabelled tetraeicosa peptide that bound to the beads [5, 14]: 0.2 % of input
cpm of radiolabelled tetraeicosa peptide that bound to the beads [5, 14]: 25 cpm
% of input of radiolabelled tetraeicosa peptide that bound to the beads ([5]; 2G3 beads suspended in PBS-BSA): 25.8 % of input
cpm of radiolabelled tetraeicosa peptide that bound to the beads ([5]; 2G3 beads suspended in PBS-BSA, 1 μg radiolabelled peptide): 2922 cpm
% of input of radiolabelled tetraeicosa peptide that bound to the beads [6, 15]: 0.2 % of input
cpm of radiolabelled tetraeicosa peptide that bound to the beads [6, 15]: 20 cpm
% of input of radiolabelled tetraeicosa peptide that bound to the beads ([6]; 8B8 beads suspended in PBS-BSA): 27.8 % of input
cpm of radiolabelled tetraeicosa peptide that bound to the beads ([6]; 8B8 beads suspended in PBS-BSA): 3155 cpm
Binding of radiolabelled (1-24) to beads bearing 8E11 (in words) (monoclonal antibody 8E11): Analogous results
Inhibitory activity on binding of monoclonal antibody 5H8 to CS protein (in words) [7]: almost identical
% of input of radiolabelled tetraeicosa peptide that bound to the beads [8, 16]: 0.2 % of input
cpm of radiolabelled tetraeicosa peptide that bound to the beads [8, 16]: 25 cpm
% of input of radiolabelled tetraeicosa peptide that bound to the beads ([8]; 8A8 beads suspended in PBS-BSA): 10.3 % of input
cpm of radiolabelled tetraeicosa peptide that bound to the beads ([8]; 8A8 beads suspended in PBS-BSA): 1092 cpm
Inhibition of binding of antibody 8E11 to CS protein (in words) [9]: inhibited
IC50 ([9]; FIG. 1, read-out: Concentration giving about 50% inhibition of binding of radiolabelled 8E11 to the CS protein): ~10 µM
Reactivity with monoclonal anti-CS (in words) [10]: reacted

QAQGDGANAGQP-NH2 [Peptide 1-12, NH2 Gln-Ala-Gln-Gly-Asp-Gly-Ala-Asn-Ala-Gly-Gln-ProCONH2]
Inhibitory activity on binding of monoclonal antibody 2G3 to CS protein (in words) [3]: almost identical; also recorded: strongly inhibitory
Molar concentration of peptide (×5) necessary for 50% inhibition of binding of monoclonal antibody 2G3 ([3]; head prints (×5), radiolabeled 2G3, CS protein P. knowlesi immobilized on wells, 4° C. for 18 hours): 10^-13 Molar
Reactivity with monoclonal anti-CS 2G3 (previous work) [4]: very effectively inhibited
Inhibitory activity on binding of monoclonal antibody 8B8 to CS protein (in words) [11]: strongly inhibitory
Inhibitory activity on binding of monoclonal antibody 5H8 to CS protein (in words) [7]: almost identical; also recorded: strongly inhibitory
Inhibitory effect on binding of 8E11 to CS protein at a fixed concentration ([9]; at a concentration of 10^-2 M): no appreciable inhibitory effect
Reactivity with monoclonal anti-CS (in words) [10]: very efficient inhibitors
